According to the supplement of paper PMC10307832:

Assays:
Assay in all cases: relative viability (nuclei count vs DMSO), 5 days (fraction); higher = more cells survive
[1] = compound: C1=CC=C2C(=C1)N=C(S2)C(C#N)C3=NC(=NC=C3)NCCC4=CN=CC=C4 + CCNC(=O)c1noc(-c2cc(C(C)C)c(O)cc2O)c1-c1ccc(CN2CCOCC2)cc1 [Luminespib] (partner 0.01 µM)
Procedure, shortened: (§1)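 Medians of duplicate plates are given as relative viability. That measure is the nuclei count in treated wells divided by the count in vehicle wells. Counts were taken on 4× images of lung cancer cell lines in 1536-well plates, 5 days after pin-tool dosing the day after seeding with one drug alone or a fixed anchor-drug dose plus five library-drug doses (not always all listed) in √10 steps.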

Vandetanib + Trametinib = compound: COc1cc2/c(=N/c3ccc(Br)cc3F)nc[nH]c2cc1OCC1CCN(C)CC1 [Vandetanib] + CC(=O)Nc1cccc(-n2c(=O)n(C3CC3)c(=O)c3c(Nc4ccc(I)cc4F)n(C)c(=O)c(C)c32)c1 [Trametinib] (partner 0.02 µM)
Procedure, shortened: as §1

NVP-TAE684 + Navitoclax = compound: COc1cc(N2CCC(N3CCN(C)CC3)CC2)ccc1Nc1ncc(Cl)c(Nc2ccccc2S(=O)(=O)C(C)C)n1 [NVP-TAE684] + CC1(C)CCC(c2ccc(Cl)cc2)=C(CN2CCN(c3ccc(C(=O)NS(=O)(=O)c4ccc(N[C@H](CCN5CCOCC5)CSc5ccccc5)c(S(=O)(=O)C(F)(F)F)c4)cc3)CC2)C1 [Navitoclax] (partner 0.5 µM)
Procedure, shortened: as §1

CUDC-101 + OSI-027 = compound: C#Cc1cccc(Nc2ncnc3cc(OC)c(OCCCCCCC(=O)NO)cc23)c1 [CUDC-101] + COc1cccc2cc(-c3nc([C@H]4CC[C@H](C(=O)O)CC4)n4ncnc(N)c34)[nH]c12 [OSI-027] (partner 0.5 µM)
Procedure, shortened: as §1

Cell Line | relative viability ([1]; first compound 0.005 µM) | relative viability ([1]; first compound 0.01581 µM) | relative viability ([1]; first compound 0.05 µM) | relative viability ([1]; first compound 0.1581 µM) | relative viability ([1]; first compound 0.5 µM) | relative viability (Vandetanib + Trametinib; first compound 0.02 µM) | relative viability (Vandetanib + Trametinib; first compound 0.06325 µM) | relative viability (Vandetanib + Trametinib; first compound 0.2 µM) | relative viability (Vandetanib + Trametinib; first compound 0.6325 µM) | relative viability (Vandetanib + Trametinib; first compound 2 µM) | relative viability (NVP-TAE684 + Navitoclax; first compound 0.2 µM) | relative viability (NVP-TAE684 + Navitoclax; first compound 0.6325 µM) | relative viability (NVP-TAE684 + Navitoclax; first compound 2 µM) | relative viability (CUDC-101 + OSI-027; first compound 0.01 µM) | relative viability (CUDC-101 + OSI-027; first compound 0.03162 µM) | relative viability (CUDC-101 + OSI-027; first compound 0.1 µM) | relative viability (CUDC-101 + OSI-027; first compound 0.3162 µM) | relative viability (CUDC-101 + OSI-027; first compound 1 µM)
NCI-H1437 | 1.06 | 1.25 | 1.12 | 1.18 | 1.1 | 0.592 | 0.466 | 0.557 | 0.432 | 0.517 | 1.31 | 1.12 | 0.631 | 0.857 | 0.876 | 0.886 | 0.952 | 0.662
EPLC-272H | 0.248 | 0.229 | 0.169 | 0.392 | 0.302 | 0.303 | 0.242 | 0.289 | 0.293 | 0.255 | 1.02 | – | 1.48 | 0.266 | 0.317 | 0.238 | 0.244 | 0.187
NCI-H1703 | – | – | – | – | – | – | – | – | – | – | 1.17 | 1.04 | 0.215 | – | – | – | – | –
HCC-15 | 0.478 | 0.255 | 0.237 | 0.354 | 0.27 | 0.386 | 0.362 | 0.37 | 0.395 | 0.369 | 0.72 | 0.681 | 0.375 | 0.697 | 0.696 | 0.674 | 0.73 | 0.584
NCI-H2347 | 0.811 | 0.355 | 0.381 | 0.488 | 0.363 | 0.28 | 0.278 | 0.254 | 0.283 | 0.28 | 0.716 | 0.826 | 0.752 | 0.313 | 0.38 | 0.402 | 0.469 | 0.25
COR-L 105 | 0.782 | 0.848 | 0.85 | 0.826 | 0.657 | 0.42 | 0.405 | 0.427 | 0.383 | 0.416 | 0.717 | 0.74 | 0.593 | 0.717 | 0.73 | 0.399 | 0.61 | 0.204
NCI-H1650 | 0.171 | 0.191 | 0.176 | 0.204 | 0.2 | 0.618 | 0.409 | 0.461 | 0.483 | 0.364 | – | 1.08 | 0.545 | 0.661 | 0.531 | 0.517 | 0.577 | 0.231
NCI-H838 | 0.327 | 0.368 | 0.252 | 0.367 | 0.273 | 0.528 | 0.463 | 0.539 | 0.484 | 0.533 | 1.43 | 1.09 | 0.403 | 0.411 | 0.354 | 0.431 | 0.523 | 0.391
NCI-H2009 | 1.1 | 1.09 | 1.05 | 1.07 | 1.05 | 0.263 | 0.252 | 0.286 | 0.282 | 0.275 | 1.2 | 1.15 | 0.95 | 0.672 | 0.737 | 0.739 | 0.8 | 0.494
SK-MES-1 | 1.16 | 0.937 | 0.669 | 0.962 | 0.85 | 0.593 | 0.464 | 0.304 | 0.405 | 0.357 | 1.29 | 1.22 | 0.78 | 0.604 | 0.601 | 0.673 | 0.656 | 0.381
HCC-78 | – | – | – | – | – | 0.73 | 0.814 | 0.684 | 0.809 | 0.525 | 0.433 | 0.535 | 0.282 | 0.291 | 0.352 | 0.362 | 0.335 | 0.218
Calu-6 | – | – | – | – | – | – | – | – | – | – | 0.776 | 0.694 | 0.269 | – | – | – | – | –
NCI-H2342 | 0.555 | 0.708 | 0.794 | 0.776 | 0.841 | 0.823 | 0.826 | 0.869 | 0.851 | 0.809 | – | – | – | 0.579 | 0.607 | 0.59 | 0.673 | 0.725
LCLC-103H | 0.773 | 0.854 | 0.905 | 0.944 | 0.96 | 0.665 | 0.606 | 0.638 | 0.677 | 0.695 | – | – | – | 0.45 | 0.42 | 0.485 | 0.435 | 0.433
NCI-H1563 | 0.534 | 0.52 | 0.507 | 0.553 | 0.552 | – | – | – | – | – | – | – | – | 0.732 | 0.751 | 0.783 | 0.728 | 0.675
EBC-1 | – | – | – | – | – | – | – | – | – | – | 0.323 | 0.247 | 0.245 | – | – | – | – | –
NCI-H358 | 0.248 | 0.465 | 0.296 | 0.475 | 0.185 | 0.153 | 0.129 | 0.123 | 0.128 | 0.123 | – | – | – | 0.834 | 0.893 | 0.909 | 0.884 | 0.315
SW 900 | 0.164 | 0.205 | 0.175 | 0.197 | 0.179 | 0.654 | 0.71 | – | 0.673 | 0.549 | – | – | – | 0.577 | 0.42 | 0.562 | 0.577 | 0.662
NCI-H661 | 0.902 | 0.917 | 0.918 | 0.926 | 0.933 | 0.55 | 0.543 | 0.63 | 0.601 | 0.532 | – | – | – | 0.709 | 0.808 | 0.735 | 0.711 | 0.346
A549 | – | – | – | – | – | – | – | – | – | – | 1.38 | – | 0.263 | – | – | – | – | –
NCI-H1648 | – | – | – | – | – | 0.426 | 0.461 | 0.512 | 0.541 | 0.506 | – | – | – | 0.265 | – | 0.243 | 0.266 | 0.254
ABC-1 | – | 0.736 | 0.374 | 0.855 | 0.737 | – | – | – | – | – | – | – | – | 0.601 | 0.461 | 0.454 | 0.373 | 0.142
NCI-H650 | 0.784 | – | 0.724 | 0.825 | 0.863 | 0.995 | 0.927 | 0.947 | 0.929 | 0.981 | – | – | – | 0.58 | 0.569 | 0.622 | 0.587 | 0.474
